Assay results published in PubChem BioAssay (NCI).
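Cultured in 96-well plates, cells were exposed to test compound for 48 hours across five concentrations. GI50 = concentration required for 50% inhibition of growth. Definition used: TGI = concentration required for complete inhibition of growth.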

Assays:
Experiment in all cases: growth of human tumour cells (NCI), 48 h; in the data active = GI50 below about 0.43 µM; inactive = the rest
M14 melanoma = test system: M14 melanoma
NCI-H23 lung = test system: NCI-H23 lung
HCT-15 colon = test system: HCT-15 colon
SK-OV-3 ovarian = test system: SK-OV-3 ovarian
HCT-116 colon = test system: HCT-116 colon
HCC-2998 colon = test system: HCC-2998 colon
OVCAR-8 ovarian = test system: OVCAR-8 ovarian
NCI/ADR-RES ovarian = test system: NCI/ADR-RES ovarian
SF-539 CNS = test system: SF-539 CNS
SK-MEL-28 melanoma = test system: SK-MEL-28 melanoma
A549 NSCLC = test system: A549 NSCLC
SK-MEL-2 melanoma = test system: SK-MEL-2 melanoma
MOLT-4 leukemia = test system: MOLT-4 leukemia
RPMI-8226 leukemia = test system: RPMI-8226 leukemia
U251 CNS = test system: U251 CNS
A498 renal = test system: A498 renal
UACC-257 melanoma = test system: UACC-257 melanoma
RXF 393 renal = test system: RXF 393 renal
OVCAR-5 ovarian = test system: OVCAR-5 ovarian
LOX IMVI melanoma = test system: LOX IMVI melanoma
HS 578T breast = test system: HS 578T breast
KM12 colon = test system: KM12 colon
UO-31 renal = test system: UO-31 renal
EKVX NSCLC = test system: EKVX NSCLC
SW-620 colon = test system: SW-620 colon
NCI-H226 lung = test system: NCI-H226 lung
UACC-62 melanoma = test system: UACC-62 melanoma
OVCAR-4 ovarian = test system: OVCAR-4 ovarian
HT29 colon = test system: HT29 colon
HL-60(TB) leukemia = test system: HL-60(TB) leukemia
MALME-3M melanoma = test system: MALME-3M melanoma
MCF7 breast = test system: MCF7 breast
DU-145 prostate = test system: DU-145 prostate
MDA-MB-435 = test system: MDA-MB-435
NCI-H522 lung = test system: NCI-H522 lung
SNB-75 CNS = test system: SNB-75 CNS
CAKI-1 renal = test system: CAKI-1 renal
NCI-H460 lung = test system: NCI-H460 lung
CCRF-CEM leukemia = test system: CCRF-CEM leukemia
786-0 renal = test system: 786-0 renal
SK-MEL-5 melanoma = test system: SK-MEL-5 melanoma
TK-10 renal = test system: TK-10 renal
IGROV1 ovarian = test system: IGROV1 ovarian
SR leukemia = test system: SR leukemia
HOP-92 NSCLC = test system: HOP-92 NSCLC
SF-295 CNS = test system: SF-295 CNS
COLO 205 colon = test system: COLO 205 colon
BT-549 breast = test system: BT-549 breast
PC-3 prostate = test system: PC-3 prostate
K-562 leukemia = test system: K-562 leukemia
HOP-62 NSCLC = test system: HOP-62 NSCLC
SF-268 CNS = test system: SF-268 CNS
SNB-19 CNS = test system: SNB-19 CNS
OVCAR-3 ovarian = test system: OVCAR-3 ovarian
ACHN renal = test system: ACHN renal
SN12C renal = test system: SN12C renal
MDA-MB-231 breast = test system: MDA-MB-231 breast
T-47D breast = test system: T-47D breast

OC(COc1cccc2ccccc12)CN1CCN(c2ccc(Cl)cc2)CC1 (stereo unspecified)
49.3 µM: TGI (OVCAR-4 ovarian)
61.1 µM: TGI (NCI/ADR-RES ovarian)
92 µM: TGI (A498 renal)
60.3 µM: TGI (SK-MEL-2 melanoma)
64.7 µM: TGI (MALME-3M melanoma)
29.6 µM: TGI (HOP-62 NSCLC)
68.5 µM: TGI (SF-539 CNS)
43.5 µM: TGI (NCI-H522 lung)
45.4 µM: TGI (SNB-19 CNS)
75.9 µM: TGI (RXF 393 renal)
77.6 µM: TGI (HT29 colon)
69.1 µM: TGI (OVCAR-3 ovarian)
27.1 µM: TGI (SNB-75 CNS)
36.1 µM: TGI (UO-31 renal)
26.5 µM: TGI (TK-10 renal)
70.4 µM: TGI (NCI-H226 lung)
71.6 µM: TGI (SK-MEL-28 melanoma)
36.9 µM: TGI (SF-295 CNS)
45.5 µM: TGI (SF-268 CNS)
40 µM: TGI (IGROV1 ovarian)
69 µM: TGI (MDA-MB-231 breast)
> 100 µM: TGI (M14 melanoma) | TGI (NCI-H23 lung) | TGI (HCT-15 colon) | TGI (HCT-116 colon) | TGI (HCC-2998 colon) | TGI (A549 NSCLC) | TGI (MOLT-4 leukemia) | TGI (RPMI-8226 leukemia) | TGI (UACC-257 melanoma) | TGI (OVCAR-5 ovarian) | TGI (LOX IMVI melanoma) | TGI (HS 578T breast) | TGI (KM12 colon) | TGI (EKVX NSCLC) | TGI (SW-620 colon) | TGI (UACC-62 melanoma) | TGI (HL-60(TB) leukemia) | TGI (MCF7 breast) | TGI (DU-145 prostate) | TGI (MDA-MB-435) | TGI (NCI-H460 lung) | TGI (CCRF-CEM leukemia) | TGI (SK-MEL-5 melanoma) | TGI (SR leukemia) | TGI (COLO 205 colon) | TGI (BT-549 breast) | TGI (K-562 leukemia) | TGI (ACHN renal) | TGI (SN12C renal) | TGI (T-47D breast)
33.1 µM: TGI (786-0 renal)
41 µM: TGI (OVCAR-8 ovarian)
inactive: GI50 (M14 melanoma) 64.8 µM | GI50 (NCI-H23 lung) 29.4 µM | GI50 (HCT-15 colon) > 100 µM | GI50 (SK-OV-3 ovarian) 14.7 µM | GI50 (HCT-116 colon) 23.4 µM | GI50 (HCC-2998 colon) > 100 µM | GI50 (OVCAR-8 ovarian) 15.2 µM | GI50 (NCI/ADR-RES ovarian) 16.4 µM | GI50 (SF-539 CNS) 22.6 µM | GI50 (SK-MEL-28 melanoma) 26.9 µM | GI50 (A549 NSCLC) 19.4 µM | GI50 (SK-MEL-2 melanoma) 21.7 µM | GI50 (MOLT-4 leukemia) > 100 µM | GI50 (RPMI-8226 leukemia) 42.9 µM | GI50 (U251 CNS) 12.6 µM | GI50 (A498 renal) 21.3 µM | GI50 (UACC-257 melanoma) 42.3 µM | GI50 (RXF 393 renal) 28.6 µM | GI50 (OVCAR-5 ovarian) > 100 µM | GI50 (LOX IMVI melanoma) 26.3 µM | GI50 (HS 578T breast) 23.4 µM | GI50 (KM12 colon) 38.3 µM | GI50 (UO-31 renal) 15.5 µM | GI50 (EKVX NSCLC) 21.3 µM | GI50 (SW-620 colon) 17.9 µM | GI50 (NCI-H226 lung) 13.8 µM | GI50 (UACC-62 melanoma) 23.3 µM | GI50 (OVCAR-4 ovarian) 21.7 µM | GI50 (HT29 colon) 16.6 µM | GI50 (HL-60(TB) leukemia) > 100 µM | GI50 (MALME-3M melanoma) 22.5 µM | GI50 (MCF7 breast) 29.9 µM | GI50 (DU-145 prostate) 38.9 µM | GI50 (MDA-MB-435) 38.8 µM | GI50 (NCI-H522 lung) 15.7 µM | GI50 (SNB-75 CNS) 9.76 µM | GI50 (CAKI-1 renal) 5.8 µM | GI50 (NCI-H460 lung) 15.7 µM | GI50 (CCRF-CEM leukemia) > 100 µM | GI50 (786-0 renal) 16.3 µM | GI50 (SK-MEL-5 melanoma) 55.8 µM | GI50 (TK-10 renal) 10.1 µM | GI50 (IGROV1 ovarian) 14.6 µM | GI50 (SR leukemia) > 100 µM | GI50 (HOP-92 NSCLC) 5.02 µM | GI50 (SF-295 CNS) 11.4 µM | GI50 (COLO 205 colon) > 100 µM | GI50 (BT-549 breast) > 100 µM | GI50 (PC-3 prostate) 15.3 µM | GI50 (K-562 leukemia) > 100 µM | GI50 (HOP-62 NSCLC) 8.53 µM | GI50 (SF-268 CNS) 19.1 µM | GI50 (SNB-19 CNS) 17 µM | GI50 (OVCAR-3 ovarian) 23.8 µM | GI50 (ACHN renal) 11.8 µM | GI50 (SN12C renal) 51 µM | GI50 (MDA-MB-231 breast) 19.5 µM | GI50 (T-47D breast) 81.3 µM
31.4 µM: TGI (CAKI-1 renal)
28 µM: TGI (HOP-92 NSCLC)
45.2 µM: TGI (SK-OV-3 ovarian)
29.9 µM: TGI (U251 CNS)
46.2 µM: TGI (PC-3 prostate)

CCCCCCCC/C=C\CCCCCCCC(=O)OC[C@]1(CO)CCC(=O)O1
> 100 µM: TGI (M14 melanoma) | TGI (NCI-H23 lung) | TGI (HCT-15 colon) | TGI (SK-OV-3 ovarian) | TGI (HCT-116 colon) | TGI (HCC-2998 colon) | TGI (OVCAR-8 ovarian) | TGI (NCI/ADR-RES ovarian) | TGI (SK-MEL-28 melanoma) | TGI (A549 NSCLC) | TGI (SK-MEL-2 melanoma) | TGI (MOLT-4 leukemia) | TGI (U251 CNS) | TGI (A498 renal) | TGI (UACC-257 melanoma) | TGI (RXF 393 renal) | TGI (OVCAR-5 ovarian) | TGI (LOX IMVI melanoma) | TGI (HS 578T breast) | TGI (KM12 colon) | TGI (UO-31 renal) | TGI (EKVX NSCLC) | TGI (SW-620 colon) | TGI (NCI-H226 lung) | TGI (UACC-62 melanoma) | TGI (OVCAR-4 ovarian) | TGI (HT29 colon) | TGI (MALME-3M melanoma) | TGI (MCF7 breast) | TGI (DU-145 prostate) | TGI (MDA-MB-435) | TGI (NCI-H522 lung) | TGI (SNB-75 CNS) | TGI (CAKI-1 renal) | TGI (NCI-H460 lung) | TGI (CCRF-CEM leukemia) | TGI (786-0 renal) | TGI (SK-MEL-5 melanoma) | TGI (TK-10 renal) | TGI (IGROV1 ovarian) | TGI (SR leukemia) | TGI (HOP-92 NSCLC) | TGI (SF-295 CNS) | TGI (COLO 205 colon) | TGI (BT-549 breast) | TGI (PC-3 prostate) | TGI (K-562 leukemia) | TGI (HOP-62 NSCLC) | TGI (SF-268 CNS) | TGI (SNB-19 CNS) | TGI (OVCAR-3 ovarian) | TGI (ACHN renal) | TGI (SN12C renal) | TGI (MDA-MB-231 breast) | TGI (T-47D breast)
